Experimental data published in ChEMBL document CHEMBL1201862, “PubChem BioAssay data set” (2004).
Active and inactive are the calls of the source.

How the values were obtained:
[1] = molecular target: T1, Epstein-Barr nuclear antigen 1 (Epstein-Barr virus (strain B95-8) (HHV-4) (Human herpesvirus 4), UniProt P03211); experiment: inhibition of EBV nuclear antigen 1 DNA binding – biochemical, fluorescence polarization, 1536-well, dose response (AID 2381); set-up: species or system human gammaherpesvirus 4;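 also: fluorescence polarization of a Cy5 DNA probe bound by EBNA-1 protein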
T1 sequence (P03211 whole entry): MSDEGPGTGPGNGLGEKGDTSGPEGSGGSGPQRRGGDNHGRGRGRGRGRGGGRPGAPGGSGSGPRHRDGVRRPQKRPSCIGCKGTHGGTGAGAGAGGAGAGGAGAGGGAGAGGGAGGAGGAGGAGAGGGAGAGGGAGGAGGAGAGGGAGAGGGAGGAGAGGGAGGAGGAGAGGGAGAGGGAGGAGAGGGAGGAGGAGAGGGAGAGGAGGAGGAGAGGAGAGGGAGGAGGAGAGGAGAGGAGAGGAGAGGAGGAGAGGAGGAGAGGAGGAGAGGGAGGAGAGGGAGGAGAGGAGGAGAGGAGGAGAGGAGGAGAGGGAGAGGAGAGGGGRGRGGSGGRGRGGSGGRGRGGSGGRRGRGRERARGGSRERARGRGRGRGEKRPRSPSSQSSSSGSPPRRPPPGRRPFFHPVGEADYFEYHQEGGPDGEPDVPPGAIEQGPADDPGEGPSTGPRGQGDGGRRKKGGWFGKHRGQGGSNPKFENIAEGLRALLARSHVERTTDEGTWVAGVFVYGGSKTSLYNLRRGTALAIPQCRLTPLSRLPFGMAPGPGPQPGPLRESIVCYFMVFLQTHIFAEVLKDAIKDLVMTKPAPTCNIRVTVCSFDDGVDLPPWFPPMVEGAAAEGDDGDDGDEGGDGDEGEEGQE

[2] = molecular target: T2, Lytic switch protein BZLF1 (Epstein-Barr virus (strain B95-8) (HHV-4) (Human herpesvirus 4), UniProt P03206); experiment: inhibition of BZLF1 ZTA DNA binding – biochemical, fluorescence polarization, Epstein-Barr virus, 1536-well, counter-screen for EBNA-1 inhibitor project, dose response (AID 2377); set-up: species or system human gammaherpesvirus 4;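 also: fluorescence polarization of Cy5-labelled ZRE DNA probe bound by purified Zta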
T2 sequence (P03206 whole entry): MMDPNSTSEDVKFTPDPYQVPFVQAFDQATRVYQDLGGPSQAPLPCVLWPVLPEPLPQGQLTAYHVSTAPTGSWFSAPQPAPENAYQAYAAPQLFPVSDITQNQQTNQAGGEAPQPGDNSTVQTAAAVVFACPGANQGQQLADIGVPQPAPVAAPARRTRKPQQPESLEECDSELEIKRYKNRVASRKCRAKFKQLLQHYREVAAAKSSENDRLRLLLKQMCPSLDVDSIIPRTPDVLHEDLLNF

[3] = molecular target: T3, Mannose-6-phosphate isomerase (Homo sapiens, UniProt P34949); experiment: MPI inhibition at elevated mannose 6-phosphate – biochemical, fluorescence intensity, high mannose 6-phosphate, primary screen (AID 1220)
T3 sequence (P34949 whole entry): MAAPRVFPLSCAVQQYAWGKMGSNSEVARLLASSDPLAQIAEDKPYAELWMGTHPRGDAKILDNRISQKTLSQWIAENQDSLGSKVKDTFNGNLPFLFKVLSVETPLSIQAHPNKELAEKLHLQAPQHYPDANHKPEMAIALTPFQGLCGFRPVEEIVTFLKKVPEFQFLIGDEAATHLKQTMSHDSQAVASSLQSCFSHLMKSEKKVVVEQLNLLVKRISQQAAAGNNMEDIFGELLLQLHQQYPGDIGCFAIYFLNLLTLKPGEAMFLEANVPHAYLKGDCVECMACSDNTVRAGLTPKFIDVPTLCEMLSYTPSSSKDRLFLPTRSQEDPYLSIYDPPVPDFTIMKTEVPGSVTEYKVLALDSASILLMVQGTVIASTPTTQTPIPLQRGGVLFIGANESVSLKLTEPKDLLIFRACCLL

[4] = viability inhibitors of stage V gametocytes – luminescence, dose response (AID 1117278); assay type: functional, cell-based;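 also: gametocytes exposed to compound for 24 hours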
[5] = viability loss in human Jurkat cells – cell-based, luminescence, cytotoxicity control for P. falciparum gametocyte viability project, dose response (AID 1117277); assay type: functional;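 also: potency reflects loss of cellular ATP meaning fewer viable cells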
[6] = A549 cell cytotoxicity, dose response, cytotoxicity control, plate reader, cherry-pick, antagonist series (AID 743412); assay type: functional, cell-based
[7] = toxicity toward HepG2 liver cells – cell-based, plate reader, cherry-pick, antagonist series, cytotoxicity control, dose response (AID 743416); assay type: functional
[8] = blockers of bursicon-stimulated LGR2 cAMP reporter – cell-based, HEK293, CRE-luciferase reporter, cherry pick, set 2, dose response (AID 743343); assay type: functional;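 also: transfected cells were stimulated with diluted bursicon conditioned medium after compound addition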
[9] = blockade of melanocortin 4 receptor signaling – cell-based, plate reader, cherry pick, counter-screen for LGR2 antagonist project, dose response (AID 743444); assay type: functional;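 also: transfected HEK 293 cells stimulated with alpha-MSH peptide; potency of inhibitors of the alpha-MSH evoked signal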
[10] = viability loss in HEK293 cells – cell-based, plate reader, cherry-picked samples, cytotoxicity control, dose response (AID 743446); assay type: functional
[11] = viability of uninfected HEp-2 cells – cell-based, HTS, cytotoxicity control for RSV inhibitor project, dose response (AID 2410); assay type: functional; details: human respiratory syncytial virus
Caspase-6 = molecular target: T4, Caspase-6 (Homo sapiens, UniProt P55212); experiment: inhibition of CASP6 peptide cleavage – biochemical, VEID-R110 fluorescence, cherry-pick, dose response (AID 720632)
T4 sequence (P55212 whole entry): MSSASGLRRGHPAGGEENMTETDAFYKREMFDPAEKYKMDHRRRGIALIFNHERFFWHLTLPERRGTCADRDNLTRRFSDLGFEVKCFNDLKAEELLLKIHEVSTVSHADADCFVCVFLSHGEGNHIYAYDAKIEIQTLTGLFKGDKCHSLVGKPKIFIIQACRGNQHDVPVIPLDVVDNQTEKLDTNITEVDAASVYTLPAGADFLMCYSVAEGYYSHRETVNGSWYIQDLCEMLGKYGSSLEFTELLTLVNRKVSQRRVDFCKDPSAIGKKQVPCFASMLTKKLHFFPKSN

Paired box protein Pax-8 = Paired box protein Pax-8 (Homo sapiens, UniProt Q06710); experiment: PAX8 transcriptional activity inhibition in RMG-I – RMG-I cells, luciferase, cherry-pick, dose response (AID 687027); assay type: functional, cell-based;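 also: luciferase reporter driven by Pax8 target thyroperoxidase promoter measured by SteadyGlo luminescence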
[12] = OVCAR-3 cell viability loss – plate reader, dry powder samples, PAX8 inhibitor project, dose response (AID 743044); assay type: functional, cell-based
[13] = general cell-killing toxicity readout – plate reader, dry powder samples, cytotoxicity control for PAX8 inhibitor project, dose response (AID 743021); assay type: functional, cell-based
[14] = OVCAR8 cell viability loss – plate reader, dry powder samples, PAX8 project, dose response (AID 743197); assay type: functional, cell-based; details: OVCAR-8
Estrogen receptor = molecular target: T5, Estrogen receptor (Homo sapiens, UniProt P03372);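 also: potency for inhibiting coactivator peptide recruitment to the receptor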
T5 sequence (P03372 whole entry): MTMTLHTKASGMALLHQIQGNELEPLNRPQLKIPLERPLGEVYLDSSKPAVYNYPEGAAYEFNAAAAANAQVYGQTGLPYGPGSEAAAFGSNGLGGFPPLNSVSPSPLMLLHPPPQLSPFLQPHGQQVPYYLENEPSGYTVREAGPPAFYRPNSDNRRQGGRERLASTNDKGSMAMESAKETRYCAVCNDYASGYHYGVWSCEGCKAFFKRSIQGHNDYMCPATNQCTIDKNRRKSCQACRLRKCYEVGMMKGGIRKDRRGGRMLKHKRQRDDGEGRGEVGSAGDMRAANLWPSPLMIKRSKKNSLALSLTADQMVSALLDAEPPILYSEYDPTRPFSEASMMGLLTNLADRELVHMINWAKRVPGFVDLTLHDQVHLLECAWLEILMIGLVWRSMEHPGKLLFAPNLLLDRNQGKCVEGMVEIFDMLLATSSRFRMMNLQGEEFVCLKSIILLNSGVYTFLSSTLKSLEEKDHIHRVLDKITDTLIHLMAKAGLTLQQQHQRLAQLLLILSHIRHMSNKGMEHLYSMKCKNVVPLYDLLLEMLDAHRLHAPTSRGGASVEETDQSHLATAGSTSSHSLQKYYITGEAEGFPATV

[15] = molecular target: T6, Carboxy-terminal domain RNA polymerase II polypeptide A small phosphatase 1 (Homo sapiens, UniProt Q9GZU7); experiment: CTDSP1 inhibitors, concentration-response, biochemical, absorbance readout, ultra-high-throughput screen actives (AID 540297); assay type: functional
T6 sequence (Q9GZU7 whole entry): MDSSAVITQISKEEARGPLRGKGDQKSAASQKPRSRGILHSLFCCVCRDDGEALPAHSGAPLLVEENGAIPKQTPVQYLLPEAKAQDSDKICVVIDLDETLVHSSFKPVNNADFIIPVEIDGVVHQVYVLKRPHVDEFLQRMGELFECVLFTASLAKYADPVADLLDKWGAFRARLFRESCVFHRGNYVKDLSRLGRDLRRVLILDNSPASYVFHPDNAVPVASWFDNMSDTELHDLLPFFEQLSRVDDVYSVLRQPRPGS

Chain of Paired box protein Pax-8 (Q06710 whole entry): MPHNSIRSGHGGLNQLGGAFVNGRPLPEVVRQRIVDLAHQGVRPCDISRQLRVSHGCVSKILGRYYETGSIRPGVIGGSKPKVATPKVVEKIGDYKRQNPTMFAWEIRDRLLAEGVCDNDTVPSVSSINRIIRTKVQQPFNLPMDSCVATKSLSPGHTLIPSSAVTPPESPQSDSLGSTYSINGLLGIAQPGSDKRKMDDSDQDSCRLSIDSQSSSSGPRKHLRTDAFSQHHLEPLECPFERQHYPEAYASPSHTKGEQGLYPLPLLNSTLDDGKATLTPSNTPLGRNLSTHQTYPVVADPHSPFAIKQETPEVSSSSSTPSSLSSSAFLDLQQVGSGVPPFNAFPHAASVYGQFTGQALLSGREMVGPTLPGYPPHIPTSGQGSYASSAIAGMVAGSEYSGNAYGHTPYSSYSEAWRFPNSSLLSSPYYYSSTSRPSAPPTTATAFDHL

CCOC(=O)[C@H]1[C@H]2COc3ccc(Cl)cc3[C@@H]2N2C(=O)c3ccc(Cl)cc3NC(=O)[C@@]12C
IC50 [1]: > 148 µM (not active) | IC50 [2]: > 111 µM (not active)

O=[N+]([O-])c1c(NCCO)cc(N2CCC3(CC2)OCCO3)c2nonc12
IC50 [3]: > 50 µM (not active)

CN(C)c1ccc(S(=O)(=O)N2CCCCC2)cc1NC(=O)COc1ccccc1F
IC50 [4]: > 109 µM (inactive) | IC50 [5]: > 83.3 µM (inactive)

CCOC(=O)c1ccc(-c2csc(NC(=O)CN3CCC(C)CC3)n2)cc1
IC50 [1]: 5.32 µM (active) | IC50 [2]: > 111 µM (not active)

COc1ccc(CC(=O)Nc2cccc(-c3nnc(-c4ccc(C)cc4)o3)c2)cc1OC
AC50 [6]: 33.4 µM (active) | AC50 [7]: 30.3 µM (active) | AC50 [8]: 7.65 µM (active) | AC50 [9]: 8.14 µM (active) | AC50 [10]: 10.7 µM (active)

Cc1cccc(Nc2nc(NCc3ccco3)nc(N3CCOCC3)n2)c1
CC50 [11]: 36.8 µM (active) | IC50 [4]: > 109 µM (inactive) | IC50 [5]: > 83.3 µM (inactive)

Cc1nnc(NS(=O)(=O)c2ccc(N=Nc3ccc(N)nc3N)cc2)s1
AC50 (Caspase-6): 3.23 µM (active)

COc1ccc(S(=O)(=O)N(C)C[C@H]2OCCCC[C@H](C)Oc3ccc(NS(=O)(=O)c4ccc(F)cc4)cc3C(=O)N([C@@H](C)CO)C[C@@H]2C)cc1
AC50 (Paired box protein Pax-8): 4.67 µM (active) | AC50 [12]: 21.5 µM (active) | AC50 [13]: 56.8 µM (active) | AC50 [14]: 46.1 µM (active)

C(=C\c1ccc([C@H]2[C@H]3CNC[C@@H]2N3Cc2ccccn2)cc1)/c1ccccc1
AC50 (Caspase-6): 41.9 µM (active)

CN(/N=C/c1cccnc1)c1cnn(-c2ccc(F)c(Cl)c2)c(=O)c1Cl
IC50 (Estrogen receptor): 17.9 µM (active) | IC50 [15]: > 80 µM (inactive)
